# Activity calls are given as the source filed them. No cut-off for these calls is given here.
# Assays:
# [1] = Selectivity ratio of IC50 for human LX2 cells to IC50 for human SW620 cells; assay type: functional
# SW-620 [2] = assay: Induction of cell cycle arrest at G2 phase in human SW620 cells at 0.5 uM incubated for 24 hrs by PI staining based flow cytometry (reference value: 6.77 %); assay type: functional
# Peroxiredoxin-1 [3] = biological target: T1, Peroxiredoxin-1 (Homo sapiens, UniProt Q06830); assay: Binding affinity to CM5 sensor chip-immobilized recombinant PRDX1 (unknown origin) assessed as dissociation constant by SPR analysis
# T1 sequence (Q06830 whole entry): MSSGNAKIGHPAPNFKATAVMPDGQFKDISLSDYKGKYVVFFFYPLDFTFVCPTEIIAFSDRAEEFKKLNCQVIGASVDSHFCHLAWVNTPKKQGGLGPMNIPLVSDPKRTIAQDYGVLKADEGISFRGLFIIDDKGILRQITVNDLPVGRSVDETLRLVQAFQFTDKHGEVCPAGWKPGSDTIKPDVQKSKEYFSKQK
# [4] = Acute toxicity in C57BL/[…] 6J mouse assessed as animal death at 20 mg/kg, ip measured for 2 weeks; assay type: organism-based; details: in vivo, 336 h
# Peroxiredoxin-6 = biological target: T2, Peroxiredoxin-6 (Homo sapiens, UniProt P30041); assay: Inhibition of recombinant PRDX6 (unknown origin) using H2O2 as substrate preincubated for 0.5 hrs followed by substrate addition by TRX-TrxR-NADPH coupling assay
# T2 sequence (P30041 whole entry): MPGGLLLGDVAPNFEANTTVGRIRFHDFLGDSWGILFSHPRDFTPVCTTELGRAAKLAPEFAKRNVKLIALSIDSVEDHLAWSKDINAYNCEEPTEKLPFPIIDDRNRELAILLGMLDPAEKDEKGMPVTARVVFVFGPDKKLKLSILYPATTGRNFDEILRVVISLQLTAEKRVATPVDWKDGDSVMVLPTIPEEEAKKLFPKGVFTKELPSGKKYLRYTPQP
# SW-620 [5] = assay: Antitumor activity against human SW620 cells xenografted in BALB/c nude mouse assessed as decrease in Ki-67 level at 2 mg/kg, ip qd for 16 days by IHC analysis; assay type: functional, organism-based; details: time 16.0 day
# [6] = Antiproliferative activity against mouse […] cells; assay type: toxicity, cell-based
# [7] = biological target: T3, Peroxiredoxin-5, mitochondrial (Homo sapiens, UniProt P30044); assay: Inhibition of recombinant PRDX5 (unknown origin) using H2O2 as substrate preincubated for 0.5 hrs followed by substrate addition by TRX-TrxR-NADPH coupling assay
# T3 sequence (P30044 whole entry): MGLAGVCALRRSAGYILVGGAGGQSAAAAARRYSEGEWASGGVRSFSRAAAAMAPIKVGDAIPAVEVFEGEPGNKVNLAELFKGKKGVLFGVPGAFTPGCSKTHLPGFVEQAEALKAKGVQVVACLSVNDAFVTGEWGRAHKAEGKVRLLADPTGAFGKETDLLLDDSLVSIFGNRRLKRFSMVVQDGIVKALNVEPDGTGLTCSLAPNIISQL
# SW-620 [8] = assay: cells; details: Homo sapiens, SW-620, 48 h, read-out: Activity
# Description: Induction of apoptosis in human SW620 cells assessed as viable cells at 2 uM incubated for 48 hrs by Annexin V-FITC/PI staining based flow cytometry (Rvb = 90.7 %)
# SW-620 [9] = assay: Induction of DNA damage in human SW620 cells assessed as increase in gamma-H2AX level incubated for 48 hrs by Western blot analysis; assay type: functional, cell-based; details: dose 0.25-2 µM
# [10] = AUC (0 to t) in mouse at 2 mg/kg, iv measured for 24 hrs by LC-MS/MS analysis; assay type: ADME, organism-based; details: in vivo
# [11] = Half life in mouse at 2 mg/kg, iv measured for 24 hrs by LC-MS/MS analysis; assay type: ADME, organism-based; details: in vivo
# SW-620 [12] = assay: Induction of cell cycle arrest at S phase in human SW620 cells at 1 uM incubated for 24 hrs by PI staining based flow cytometry (reference value: 59.9 %); assay type: functional
# SW-620 [13] = assay: cells; details: Homo sapiens, SW-620, 48 h, read-out: Activity; remark: listed apart in the source
# Description: Induction of apoptosis in human SW620 cells assessed as viable cells at 1 uM incubated for 48 hrs by Annexin V-FITC/PI staining based flow cytometry (Rvb = 90.7 %)
# SW-620 [14] = assay: Induction of cell cycle arrest at G2/M phase in human SW620 cells at 0.5 to 2 uM incubated for 48 hrs by PI staining based flow cytometry relative to control; assay type: functional; details: dose 0.5-2 µM
# SW-620 [15] = assay: Induction of cell cycle arrest at G2 phase in human SW620 cells at 1 uM incubated for 24 hrs by PI staining based flow cytometry (reference value: 6.77 %); assay type: functional
# SW-620 [16] = assay: Induction of mitochondrial membrane potential depolarization in human SW620 cells assessed as reduction in red fluorescence incubated for 48 hrs by JC1-staining based CLSM analysis; assay type: functional, cell-based; details: dose 0.5-2 µM
# [17] = Selectivity ratio of IC50 for mouse […] cells to IC50 for human SW620 cells; assay type: functional
# Peroxiredoxin-1 [18] = biological target: T1, Peroxiredoxin-1; assay: Inhibition of recombinant PRDX1 (unknown origin) using H2O2 as substrate preincubated for 0.5 hrs followed by substrate addition by TRX-TrxR-NADPH coupling assay
# Peroxiredoxin-4 = biological target: T4, Peroxiredoxin-4 (Homo sapiens, UniProt Q13162); assay: Inhibition of recombinant PRDX4 (unknown origin) using H2O2 as substrate preincubated for 0.5 hrs followed by substrate addition by TRX-TrxR-NADPH coupling assay
# T4 sequence (Q13162 whole entry): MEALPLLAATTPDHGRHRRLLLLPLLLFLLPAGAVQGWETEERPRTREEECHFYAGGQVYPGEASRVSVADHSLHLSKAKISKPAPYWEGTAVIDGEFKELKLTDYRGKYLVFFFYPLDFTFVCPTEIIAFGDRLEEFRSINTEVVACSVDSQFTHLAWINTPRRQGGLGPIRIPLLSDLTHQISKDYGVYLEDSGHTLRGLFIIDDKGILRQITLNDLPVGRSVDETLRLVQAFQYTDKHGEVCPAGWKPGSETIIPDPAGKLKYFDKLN
# SW-620 [19] = assay: cells; details: Homo sapiens, SW-620, 48 h, read-out: Activity; remark: listed apart in the source
# Description: Induction of apoptosis in human SW620 cells assessed as viable cells at 0.5 uM incubated for 48 hrs by Annexin V-FITC/PI staining based flow cytometry (Rvb = 90.7 %)
# [20] = AUC (0 to infinity) in mouse at 2 mg/kg, iv measured for 24 hrs by LC-MS/MS analysis; assay type: ADME, organism-based; details: in vivo
# SW-620 [21] = assay: Induction of apoptosis in human SW620 cells assessed as decrease in Bcl-xl level incubated for 48 hrs by Western blot analysis; assay type: functional, cell-based; details: dose 0.25-2 µM
# SW-620 [22] = assay: Induction of apoptosis in human SW620 cells assessed as increase in Cyt C level incubated for 48 hrs by Western blot analysis; assay type: functional, cell-based; details: dose 0.25-2 µM
# SW-620 [23] = assay: Induction of mitochondrial membrane potential depolarization in human SW620 cells assessed as increase in JC-1-stained green cells at 0.5 to 2 uM incubated for 48 hrs by flow cytometry; assay type: functional, cell-based; details: dose 0.5-2 µM
# [24] = Selectivity ratio of IC50 for HEK293T cells to IC50 for human SW620 cells; assay type: functional
# SW-620 [25] = assay: Induction of cell cycle arrest at S phase in human SW620 cells at 0.5 uM incubated for 24 hrs by PI staining based flow cytometry (reference value: 59.9 %); assay type: functional
# SW-620 [26] = assay: Induction of apoptosis in human SW620 cells assessed as total apoptotic cells at 1 uM incubated for 48 hrs by Annexin V-FITC/PI staining based flow cytometry relative to control; assay type: functional
# SW-620 [27] = assay: Antitumor activity against human SW620 cells xenografted in BALB/c nude mouse assessed as morphological change in vacuoles in tumor cells at 2 mg/kg, ip qd for 16 days by H and E staining based analysis; assay type: functional, organism-based; details: time 16.0 day
compound,measurement,setting,value
COC(=O)C1(NC(=O)N[C@]2(C)CC[C@]3(C)CC[C@]4(C)C5=CC=C6C(=CC(=O)C(O)=C6C)[C@]5(C)CC[C@@]4(C)[C@@H]3C2)CCC1,Selectivity ratio,[1],2
same,Activity,SW-620 [2],7.05%
same,Kd,Peroxiredoxin-1 [3],370 nM
same,Activity,[4],Non-Toxic
same,IC50,Peroxiredoxin-6,> 50 µM
same,Activity,SW-620 [5],Active
same,IC50,[6],~1000 nM
same,IC50,[7],> 50 µM
same,viability at 2 µM,SW-620 [8],41.5%
same,Activity,SW-620 [9],Dose-Dependent Effect
same,AUC(0-t) at 24 h,[10],364 ng·h/mL
same,half-life,[11],508 min
same,Activity,SW-620 [12],42.7%
same,viability at 1 µM,SW-620 [13],78.8%
same,Activity,SW-620 [14],7.1%
same,Activity,SW-620 [15],14.6%
same,Activity,SW-620 [16],Dose-Dependent Effect
same,Selectivity ratio,[17],2
same,IC50,Peroxiredoxin-1 [18],350 nM
same,IC50,Peroxiredoxin-4,> 50 µM
same,viability at 0.5 µM,SW-620 [19],88.5%
same,AUC(0-inf),[20],403 ng·h/mL
same,Activity,SW-620 [21],Dose-Dependent Effect
same,Activity,SW-620 [22],Dose-Dependent Effect
same,Activity,SW-620 [23],Active
same,Selectivity ratio,[24],2
same,Activity,SW-620 [25],57.3%
same,Activity,SW-620 [26],19%
same,Activity,SW-620 [27],Active
